Activity calls are given as the source filed them. The calls are words filed in the database; no cut-off is given here.
Assays:
Plasmodium falciparum = assay: Antiplasmodial activity against Plasmodium falciparum K1 infected in erythrocytes assessed as reduction in parasite DNA after 72 hrs by SYBR Green I fluorescence based assay; format: functional, organism-based; conditions: K1, Erythrocyte
[1] = Selectivity index, ratio of CC50 for human HepG2 cells to EC50 for Plasmodium falciparum K1; format: toxicity; conditions: read-out: Ratio CC50/EC50
[2] = Inhibition of Plasmodium falciparum PYK-1
[3] = Lipophilicity, logD of the compound at pH 7.4; format: physicochemical; conditions: buffer
[4] = Half-life in mouse plasma; format: ADME, cell-free
[5] = target: Bifunctional dihydrofolate reductase-thymidylate synthase (Plasmodium falciparum K1) (UniProt P13922); assay: Inhibition of Plasmodium falciparum DHFR
Chain of Bifunctional dihydrofolate reductase-thymidylate synthase (Plasmodium falciparum K1) (P13922 whole entry, looked up): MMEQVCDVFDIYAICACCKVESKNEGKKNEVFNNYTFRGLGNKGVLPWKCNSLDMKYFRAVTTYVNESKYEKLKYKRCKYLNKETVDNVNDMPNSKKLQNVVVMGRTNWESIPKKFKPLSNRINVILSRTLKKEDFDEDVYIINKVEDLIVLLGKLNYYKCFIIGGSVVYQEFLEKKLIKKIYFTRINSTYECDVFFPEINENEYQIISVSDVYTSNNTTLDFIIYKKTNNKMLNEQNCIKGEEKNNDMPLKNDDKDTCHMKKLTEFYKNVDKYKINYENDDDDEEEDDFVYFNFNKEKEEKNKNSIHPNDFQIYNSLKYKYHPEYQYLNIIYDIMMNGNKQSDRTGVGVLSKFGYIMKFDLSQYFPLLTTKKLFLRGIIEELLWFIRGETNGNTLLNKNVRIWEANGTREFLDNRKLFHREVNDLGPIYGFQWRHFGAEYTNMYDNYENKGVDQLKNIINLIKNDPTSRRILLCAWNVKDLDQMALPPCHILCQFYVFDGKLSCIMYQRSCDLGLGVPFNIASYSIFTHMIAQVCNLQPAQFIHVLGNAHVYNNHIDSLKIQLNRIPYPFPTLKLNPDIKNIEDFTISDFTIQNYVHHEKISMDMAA

[6] = Half-life in mouse liver microsomes; format: ADME, Microsome
[7] = Cytotoxicity against human HepG2 cells incubated for 72 hrs by MTT assay; format: toxicity, cell-based

EC50 (Plasmodium falciparum) [µM] | SMILES | selectivity ratio [1] | further results
0.004 | C[C@H]1[C@H](OC(=O)CCC(=O)O)O[C@@H]2O[C@@]3(C)CC[C@H]4[C@H](C)CC[C@@H]1[C@@]24OO3 [ARTESUNATE] | – | –
– | O=C(O)C(=O)O [OXALIC ACID] | – | IC50 [2]: 150 µM
– | Clc1ccc(Nc2nc(C(Cl)(Cl)Cl)nc3ccccc23)c(Cl)c1 | – | logD [3]: 3.6; half-life [4]: > 360 min; inhibition [5]: Active; half-life [6]: 18 min
– | Cc1ccc(C(=O)Nc2ccc(S(=O)(=O)O)c3cc(S(=O)(=O)O)cc(S(=O)(=O)O)c23)cc1NC(=O)c1cccc(NC(=O)Nc2cccc(C(=O)Nc3cc(C(=O)Nc4ccc(S(=O)(=O)O)c5cc(S(=O)(=O)O)cc(S(=O)(=O)O)c45)ccc3C)c2)c1 [SURAMIN] | – | IC50 [2]: 128 µM
0.15 | CC(C)(C)OC(=O)NCCCOCCOCCOCCCNCc1ccc2c(Nc3ccc(Cl)cc3Cl)nc(C(Cl)(Cl)Cl)nc2c1 | 21 | CC50 at 72 h [7]: 3.1 µM
0.5 | CCN(CC)CCCC(C)Nc1ccnc2cc(Cl)ccc12 (configuration not stated) [CHLOROQUINE] | 60 | –
0.6 | CC(C)(C)OC(=O)NCCOCCOCCNCc1ccc2c(Nc3ccc(Cl)cc3Cl)nc(C(Cl)(Cl)Cl)nc2c1 | 32 | CC50 at 72 h [7]: 19 µM

SMILES | EC50 (Plasmodium falciparum) [µM] | selectivity ratio [1] | further results
C[C@H]1c2cccc(O)c2C(=O)C2=C(O)[C@]3(O)C(=O)C(C(N)=O)=C(O)[C@@H](N(C)C)[C@@H]3[C@@H](O)[C@@H]21 [DOXYCYCLINE ANHYDROUS] | 5 | 4 | –

Reference: ChEMBL document CHEMBL5550095 (Bioorg Med Chem, 2024)
